Experimental findings from ChEMBL document CHEMBL3785078 (Eur J Clin Pharmacol, 1981) are described below.

The nature of data set [1]: Apparent volume of distribution in beta-phase iv dosed patient with normal renal function. To be noted: human, in vivo.
Data set [2] in a line: Apparent first order elimination rate constant from the central compartment in iv dosed patient (7 patients) with renal insufficiency. To be noted: human, in vivo.
Data set [3] can be described thus: Half life in patient with normal renal function assessed as unchanged compound level using 14C labeled compound measured over 72 hrs. To be noted: human, in vivo.
Data set [4] can be described thus: Total body clearance in iv dosed patient (7 patients) with renal insufficiency. As to conditions: human, in vivo.
Data set [5] can be described thus: Terminal half life in iv dosed patient with normal renal function. As to conditions: human, in vivo.
The nature of data set [6]: Apparent volume of distribution at steady state in iv dosed patient (7 patients) with renal insufficiency. To be noted: human, in vivo.
The nature of data set [7]: Apparent first order elimination rate constant from the central compartment in iv dosed patient with normal renal function. To be noted: human, in vivo.
Data set [8] can be described thus: Apparent volume of distribution at steady state in iv dosed patient with normal renal function. As to conditions: human, in vivo.
The nature of data set [9]: Disposition rate constant in patient (7 patients) with renal insufficiency at 350 mg/kg, po. To be noted: human, in vivo.
A short description of data set [10]: Half life in patient (5 patients) with severe renal insufficiency assessed as unchanged compound level using 14C labeled compound measured over 72 hrs. To be noted: human, in vivo.
Data set [11] in a line: Disposition rate constant in patient (7 patients) with renal insufficiency at 50 mg/kg, po. To be noted: human, in vivo.
A short description of data set [12]: Total body clearance in iv dosed patient with normal renal function. To be noted: human, in vivo.
A short description of data set [13]: Disposition rate constant in iv dosed patient (7 patients) with renal insufficiency. To be noted: human, in vivo.
A short description of data set [14]: clinical. To be noted: human, in vivo, po, 350 mg/kg.
Description: Terminal half life in patient (7 patients) with renal insufficiency at 350 mg/kg, po
A short description of data set [15]: Apparent volume of distribution in beta-phase in iv dosed patient (7 patients) with renal insufficiency. To be noted: human, in vivo.
Data set [16] in a line: Drug excretion in human assessed as unchanged parent compound level. To be noted: in vivo.
The nature of data set [17]: Terminal half life in iv dosed patient (7 patients) with renal insufficiency. As to conditions: human, in vivo.
Data set [18] can be described thus: clinical. To be noted: human, in vivo, po, 50 mg/kg.
Description: Terminal half life in patient (7 patients) with renal insufficiency at 50 mg/kg, po
Data set [19] in a line: Apparent volume of distribution at central compartment in iv dosed patient (7 patients) with renal insufficiency. To be noted: human, in vivo.

What is called half-life is how long it takes for the measured level to halve. For the compound `O=P1(N(CCCl)CCCl)NCCCO1` (centres undefined) [CYCLOPHOSPHAMIDE ANHYDROUS], the Vd came out at 0.68 L/kg in [1]; 0.58 L/kg in data set [6]; 0.73 L/kg in data set [8]; 0.72 L/kg in [15]; 0.41 L/kg in [19]. Also, the k el was 3.36e-05 s⁻¹ in data set [2]; 4.86e-05 s⁻¹ in data set [7]; 1.92e-05 s⁻¹ in [9]; 1.42e-05 s⁻¹ in data set [11]; 1.94e-05 s⁻¹ in [13]. The figures for the half-life at 72 h in data set [3] and in data set [10] were 6.9 h and 14 h, respectively. Besides, the clearance in [4] was 0.813 mL/min/kg; in data set [12] it was 0.977 mL/min/kg. In addition, the half-life was 8.21 h in [5], 5.21 h in the data set “clinical [14]”, 10.2 h in data set [17] and 13.7 h in the data set “clinical [18]”. Further, in data set [16], the dose excreted was less than 15%.
